Measured values: US20050118596A1, “Method for screening for compounds having hdac inhibitory activity” (priority 2002, published 2005)
Where two headings read alike, the source gives them in different places. Where a SMILES comes first, the peptide text is derived from it. [ ]: non-standard residue; d: D form. ξ: configuration not given here. Aoe(9ξ) = N[C@@H](CCCCCC(=O)C1CO1)C(=O)O; dPip = O=C(O)[C@H]1CCCCN1

Experiments:
[1] = system: Fra-1 mRNA in H1299 cells; experiment: Fra-1 mRNA levels by Q-PCR in H1299 cells after HDAC inhibitor treatment; type: cell-based, Human; conditions: for mrna remaining at 0.1 µM: Homo sapiens, NCI-H1299, read-out: % Fra1 mRNA remaining; for mrna remaining at 0.1 µM / % Fra1 mRNA remaining: H1299 cells
Description: Human H1299 non-small cell lung carcinoma cells (ATCC, Manassas, Va.) (ATCC #CRL-5803) are cultured in RPMI 1640 medium (Life Technologies, Gaithersburg, Md.) containing 10% fetal bovine serum (FBS, Life Technologies) plus 50 μg/ml Gentamycin (Life Technologies) in a humidified incubator with a 5% CO2 atmosphere at 37° C. Prior to Tpx A treatment, H1299 cells are plated at a density of 2×10^5 cells/well in 6 well plates (Costar, Corning, N.Y.) and grown up for 24 h. Tpx A (1 mM stock solution in DMSO) is added to the cells at concentrations from 1 to 1000 nM and cells are incubated for either 24 or 48 hours at 37° C.
(§1) Total RNA from Tpx A treated as well as untreated H1299 and A549 cells is prepared using the RNeasy Mini kit (Qiagen, Hilden, Germany) according to the manufacturers instructions. The RNA is recovered in 50 μl DEPC-treated H2O (RNase free) and the RNA concentration is determined by measuring the OD260 in a SpectraMax photometer (Molecular Devices, Sunnyvale, Calif.).
(§2) Sequences for primers (BIG, Freiburg, Germany) and TaqMan probes for Q-PCR containing 5′ FAM fluorescent reporter and 3′ TAMRA quencher dyes (Eurogentec, Seraing, Belgium) are selected using the Primer Express Software (Applied Biosystems, Foster City, Calif.) at default settings; Primer TM Requirements: Min Tm: 58° C., Max Tm:60° C., Optimal Tm: 59° C., Maximal Tm difference: 2° C. Primer GC Content Requirements: Min %GC 30, Max %GC 80, 3′ clamp of 0 residues. Primer Length Requirements: Min length: 9, Max length: 40, optimal length: 20. Amplicon Requirements: Min Tm: 0° C., Max Tm: 85° C., Min length: 50, Max length: 150. TaqMan Probe Criteria: TaqMan probe Tm must be 10° C. greater than PCR primer Tm.
(§3) Q-PCR is performed using the TaqMan PCR Core reagent kit (Applied Biosystems Foster City, Calif.) in a ABI Prism 7700 sequence detector (Applied Biosystems) according to the manufacturers instructions. 50 ng total RNA in 12 μl DEPC-H2O are prepared in MicroAmp optical 96 well reaction plates (Applied Biosystems) together with 13 μl TaqMan PCR reagent mix as provided in Table 1.
(§4) Settings for reverse transcription of the target RNA and detection by Q-PCR are 50° C. for 2 min., 95° C. for 10 min. followed by 50 cycles of 95° C. for 15 sec and 60° C. for 1 min. Relative measurement of the amplified product is performed using the comparative CT method as described in the manufacturer's manual (Applied Biosystems, ABI Prism 7700 sequence detection system, User Bulletin #2).
(§5) H1299 cells and HCT116 cells (ATCC, Manassas, Va.) are cultured and exposed to Tpx A or Compound A and levels of Fra-1 message assayed. In these experiments, H1299 cells are cultured as described in Example 1. HCT116 cells are cultured in RPMI 1640 medium containing 10% fetal calf serum at 37° C. and 5% CO2. 100 nM trapoxin, 100 nM Compound A or 100 nM DMSO are added to the cells at 60% confluence and grown up for either 6 or 24 hours. Using methodologies as described in Example 1 above, the RNA from cultures treated with Tpx A, Compound A or DMSO as a control is obtained and analysed by Q-PCR for Fra-1 levels; in this case, 8.7 ng total RNA in 12 μl DEPC-H2O are prepared in MicroAmp optical 96 well reaction plates (Applied Biosystems) together with 13 μl TaqMan PCR reagent mix as provided in Table 1.

[2] = system: histone deacetylase activity purified from H1299 cells; experiment: Histone deacetylase activity, release of tritium labeled acetyl groups from acetylated Histone H4 peptide; type: biochemical, Human; conditions: HDAC activity purified from H1299 cells, 2 hours at 37° C.
Description: Using conventional methodologies, the actual enzyme activity of […] was examined in the presence of Trapoxin A, Compound A or Compound B. Briefly, 30,000 cpms of a tritium labeled acetylated Histone H4 peptide is incubated with histone deacetylase activity purified from H1299 cells by ion exchange chromatography in HDAC assay buffer (10 mM Tris-Cl, pH 8.0, 10 mM NaCl, 10% glycerol) in the presence or absence of drug. The mixture is allowed to sit for 2 hours at 37° C. and radio-labeled acetyl groups released by histone deacetylase activity extracted into ethyl acetate and counted on a scintillation counter. The IC50 represents the concentration of drug that inhibits 50% of the histone deacetylase activity obtained in the absence of drug.

[3] = system: Fra-1 mRNA in HCT116 cells; experiment: Fra-1 mRNA levels by Q-PCR in HCT116 cells after HDAC inhibitor treatment; type: cell-based; conditions: for mrna remaining at 0.1 µM: Homo sapiens, HCT-116, 100 nM drug, read-out: % Fra1 mRNA remaining; for % Fra1 mRNA remaining: 100 nM drug
Description: as §5

Fra-1 mRNA in A549 cells [4] = experiment: Fra-1 mRNA levels by Q-PCR in A549 cells after HDAC inhibitor treatment; type: cell-based, Human; conditions: for mrna remaining at 0.1 µM: Homo sapiens, 100 nM, n = 4 (Example 3), read-out: % Fra1 mRNA remaining; for mrna remaining at 0.1 µM / % Fra1 mRNA remaining: A549 cells
Description: Human A549 non-small lung carcinoma cells (ATCC CCL-185, Manassas, Va.) are cultured in DMEM medium (Life Technologies, Gaithersburg, Md.) containing 4500 mg/l glucose, 10% fetal bovine serum (FBS, Life Technologies) plus 50 μg/ml Gentamycin (Life Technologies) in a humidified incubator with a 5% CO2 atmosphere at 37° C. Prior to Tpx A treatment, A549 cells are plated at a density of 2×10^5 cells/well in 6 well plates (Costar, Corning, N.Y.) and grown up for 24 h. Tpx A (1 mM stock solution in DMSO) is added to the cells at concentrations from 1 to 1000 nM and cells are incubated for either 24 or 48 hours h at 37° C.
as §1, §2, §3, §4
Human A549 non-small cell lung carcinoma cells (ATCC, Manassas, Va.) (ATCC #CCL-185) are cultured in DMEM medium (Life Technologies, Gaithersburg, Md.) containing 10% fetal bovine serum (FBS, Life Technologies) plus 50 μg/ml Gentamycin (Life Technologies) in a humidified incubator with a 5% CO2 atmosphere at 37° C. Prior to Compound B treatment, A549 cells are plated at a density of 5×10^4 cells/well in 24 well plates (Costar, Corning, N.Y.) and grown up for 24 h. Compound B (10 mM stock solution in DMSO) is diluted to a final concentration of 100 nM in tissue culture medium and added to the cells. As control an equivalent amount of DMSO is added to control cultures without Compound B. The cells are incubated at 37° C. for either 16, 24 or 48 hrs. All cell cultures are set up in duplicate. Total RNA from the compound—treated as well as untreated A549 cells is prepared using the RNeasy Mini kit (Qiagen, Hilden, Germany) according to the manufacturer's instructions. The RNA is recovered in 50 μl DEPC-treated H2O (RNase free) and the RNA concentration is determined by measuring the OD260 in a SpectraMax photometer (Molecular Devices, Sunnyvale, Calif.). The amount of RNA is adjusted to 5 ng/microliter.
DNA sequence of the Fra-1 primers and probes are as described above. Settings for reverse transcription of the target RNA and detection by Q-PCR are 50° C. for 2 min., 95° C. for 10 min. followed by 50 cycles of 95° C. for 15 sec and 60° C. for 1 min. […]

Fra-1 mRNA in A549 cells [5] = experiment: Fra-1 mRNA expression by conventional microarray technology in A549 cells; type: cell-based, Human; conditions: in the presence of TPX A, data not shown
[6] = system: Fra-1 mRNA in H1299 cells; experiment: Fra-1 mRNA expression by conventional microarray technology in H1299 cells; type: cell-based, Human; conditions: in the presence of TPX A, data not shown
[7] = target: histone deacetylase activity purified from H1299 cells by ion exchange chromatography (human); experiment: cell-based or functional assay

O=C(/C=C/c1ccc(CNCCc2c[nH]c3ccccc23)cc1)NO [Compound A, N-Hydroxy-3-[4-[[[2-(1H-indol-3-yl)-ethyl]-amino]methyl]phenyl]-2E-2-propenamide]
mrna remaining at 0.1 µM ([1]; 100 nM drug, 6 hr (Example 2)): 7.14%
mrna remaining at 0.1 µM ([1]; 100 nM drug, 24 hr (Example 2)): 2.07%
IC50 [2]: 0.063 ± 0.01 µM
mrna remaining at 0.1 µM ([3]; 6 hr): 32.6%
mrna remaining at 0.1 µM ([3]; 24 hr): 15.9%

O=C(/C=C/c1ccc(CN(CCO)CCc2c[nH]c3ccccc23)cc1)NO [Compound B, N-Hydroxy-3-[4-[[(2-hydroxyethyl)[2-(1H-indol-3-yl)-ethyl]-amino]methyl]phenyl]-2E-2-propenamide]
IC50 [2]: 0.032 ± 0.017 µM
mrna remaining at 0.1 µM (Fra-1 mRNA in A549 cells [4]; 16 hr): 15%
mrna remaining at 0.1 µM (Fra-1 mRNA in A549 cells [4]; 24 hr): 14.1%
mrna remaining at 0.1 µM (Fra-1 mRNA in A549 cells [4]; 48 hr): 52.8%

O=C(CCCCC[C@@H]1NC(=O)[C@H]2CCCCN2C(=O)[C@H](Cc2ccccc2)NC(=O)[C@H](Cc2ccccc2)NC1=O)C1CO1 (some centres unmarked) [TPX A, trapoxin A] (cyclo(FF[dPip][Aoe(9ξ)]))
IC50 ([1]; H1299 cell line, Tpx A treatment, Q-PCR, read-out: IC50 for Fra-1 mRNA down regulation): 1 to 10 nM
% Fra1 mRNA remaining ([1]; 100 nM drug, 6 hr (Example 2)): 5.81%
% Fra1 mRNA remaining ([1]; 100 nM drug, 24 hr (Example 2)): 3.11%
% Fra1 mRNA remaining ([1]; 24 hours, 1 nM TPX A): 98%
% Fra1 mRNA remaining ([1]; 24 hours, 10 nM TPX A): 2%
% Fra1 mRNA remaining ([1]; 24 hours, 50 nM TPX A): 1%
% Fra1 mRNA remaining ([1]; 24 hours, 100 nM TPX A): 1%
% Fra1 mRNA remaining ([1]; 24 hours, 250 nM TPX A): 1%
% Fra1 mRNA remaining ([1]; 24 hours, 500 nM TPX A): 1%
% Fra1 mRNA remaining ([1]; 24 hours, 1000 nM TPX A): 1%
% Fra1 mRNA remaining ([1]; 48 hours, 1 nM TPX A): 94%
% Fra1 mRNA remaining ([1]; 48 hours, 10 nM TPX A): 7%
% Fra1 mRNA remaining ([1]; 48 hours, 50 nM TPX A): 1%
% Fra1 mRNA remaining ([1]; 48 hours, 100 nM TPX A): 1%
% Fra1 mRNA remaining ([1]; 48 hours, 250 nM TPX A): 1%
% Fra1 mRNA remaining ([1]; 48 hours, 500 nM TPX A): 1%
% Fra1 mRNA remaining ([1]; 48 hours, 1000 nM TPX A): 1%
repression of Fra-1 mRNA expression (microarray) (Fra-1 mRNA in A549 cells [5]): > 200 fold
repression of Fra-1 mRNA expression (microarray) [6]: > 200 fold
IC50 [2]: 2.2 ± 0.96 µM
% Fra1 mRNA remaining ([3]; 6 hr): 14.25%
% Fra1 mRNA remaining ([3]; 24 hr): 13.68%
IC50 (Fra-1 mRNA in A549 cells [4]; A549 cell line, Tpx A treatment, Q-PCR, read-out: IC50 for Fra-1 mRNA down regulation): 10 to 50 nM
% Fra1 mRNA remaining (Fra-1 mRNA in A549 cells [4]; 24 hours, 1 nM TPX A): 95%
% Fra1 mRNA remaining (Fra-1 mRNA in A549 cells [4]; 24 hours, 10 nM TPX A): 64%
% Fra1 mRNA remaining (Fra-1 mRNA in A549 cells [4]; 24 hours, 50 nM TPX A): 26%
% Fra1 mRNA remaining (Fra-1 mRNA in A549 cells [4]; 24 hours, 100 nM TPX A): 16%
% Fra1 mRNA remaining (Fra-1 mRNA in A549 cells [4]; 24 hours, 250 nM TPX A): 6%
% Fra1 mRNA remaining (Fra-1 mRNA in A549 cells [4]; 24 hours, 500 nM TPX A): 4%
% Fra1 mRNA remaining (Fra-1 mRNA in A549 cells [4]; 24 hours, 1000 nM TPX A): 3%
% Fra1 mRNA remaining (Fra-1 mRNA in A549 cells [4]; 48 hours, 1 nM TPX A): 93%
% Fra1 mRNA remaining (Fra-1 mRNA in A549 cells [4]; 48 hours, 10 nM TPX A): 84%
% Fra1 mRNA remaining (Fra-1 mRNA in A549 cells [4]; 48 hours, 50 nM TPX A): 38%
% Fra1 mRNA remaining (Fra-1 mRNA in A549 cells [4]; 48 hours, 100 nM TPX A): 32%
% Fra1 mRNA remaining (Fra-1 mRNA in A549 cells [4]; 48 hours, 250 nM TPX A): 14%
% Fra1 mRNA remaining (Fra-1 mRNA in A549 cells [4]; 48 hours, 500 nM TPX A): 7%
% Fra1 mRNA remaining (Fra-1 mRNA in A549 cells [4]; 48 hours, 1000 nM TPX A): 6%

trapoxin A (peptide)
IC50/µM on histone deacetylase (release of tritium-labelled acetyl groups from an acetylated Histone H4 peptide) [7]: 2.2 µM
